Measured values as given in EP0801570B1, “FORMULATIONS AND METHODS FOR REDUCING SKIN IRRITATION” (COSMEDERM TECHNOLOGIES, priority 1994, dated 1996).
Where two headings read alike, the source gives them in different places.

Columns and labels:
[1] = tested on: lactic acid skin irritation; test: Lactic acid irritation trial, time zero test (anti-irritant applied simultaneously with the irritant); type: in vivo, humans; details: time zero tests; for inhibition at 250000 µM: Homo sapiens
Text: (§1) The following scaled scores were used for sensory assessment: […]

[2] = tested on: lactic acid skin irritation; test: Lactic acid irritation trial, pretreatment test (anti-irritant applied 15 minutes before the irritant); type: in vivo, humans; details: for Percent Inhibition (average inhibition of cumulative irritation): cation salt at 250 mM, lactic acid irritant; for inhibit skin irritation: topical solutions in Elizabeth Arden Visible Difference Refining Toner, various amounts of salt
Text: as §1

skin irritation = test: Human clinical trials of anti-irritant activity against topical skin irritants; type: in vivo, humans; details: for anti-irritant activity: clinical trials
Procedure: The objective of the clinical trials was to determine whether and to what extent topical formulations of the calcium cation reduced or prevented skin irritation caused by certain severe skin irritants, including particularly lactic acid and glycolic acid (which are hydroxy acids), capryloyl salicylic acid (a β-hydroxy acid ester) and capsaicin (an isolate from cayenne and paprika known for its skin-irritating properties). The trials were conducted in a double blind, randomized, vehicle-controlled manner. Various formulations of the invention were tested in over 460 people.
(§2) Tests were conducted in multiple panels of from 7 to 12 subjects each. Subjects were instructed not to wear any makeup or facial lotions to the clinic the day of testing. The subjects were instructed to wash their face with Ivory bar soap in the clinic prior to application of test solutions.

[3] = tested on: lactic acid skin irritation
Procedure: The majority of the trials were conducted using lactic acid as the skin irritant, and proceeded generally as follows.
as §2
Lactic acid skin-irritant compositions were formulated in an appropriate vehicle prior to application to the skin of the subjects.
Controls were performed by applying corresponding formulation(s) (pretreatment and/or skin-irritant composition) with an equimolar amount of sodium chloride to a contralateral portion of the subject's skin. Typically, the test materials were applied to the face of the subject.
All test solutions (including controls) were applied in a double blind, randomized fashion using the prepared solutions as previously placed in coded vial designated for use on either the right or left side of the face (or other test area). Solutions were typically applied using a cotton swab (six strokes) or sponge applicator to the face and cheek area extending from the midline of the nose over to the center of the cheek and from the cheek bone down to the jaw line. Application was made first to the right side and then to the left.
The following scaled scores were used for sensory assessment:
Symptom scores were cumulated, separately for the cation-treated and control-treated areas, for each individual and also for the panel as a whole.

[4] = cation salt at 250 mM, lactic acid irritant
[5] = representative panels, cation concentration 250 mM, vehicle 10% EtOH
[6] = pretreatment tests, representative panels, cation concentration 250 mM, vehicle VIS DIFFERENCE

Row | Structure (SMILES) | inhibition at 250000 µM ([1]; cation salt at 250 mM, lactic acid irritant, read-out: Percent Inhibition (average inhibition of cumulative irritation)) | inhibition at 250000 µM ([1]; representative panels, cation concentration 250 mM, vehicle 10% EtOH, read-out: Percent Inhibition) | inhibition at 250000 µM ([2]; Homo sapiens, pretreatment tests, representative panels, cation concentration 250 mM, vehicle VIS DIFFERENCE, read-out: Percent Inhibition) | anti-irritant activity (skin irritation) | Percent Inhibition (average inhibition of cumulative irritation) [1, 4] | Percent Inhibition [1, 5] | Percent Inhibition (average inhibition of cumulative irritation) ([2]; pretreatment tests) | Percent Inhibition [2, 6] | inhibit skin irritation [2] | suppress stinging, burning, tingling, itching and/or erythema (skin irritation; applied topically to the skin, irritants lactic acid, glycolic acid, capryloyl salicylic acid and benzoyl peroxide) | Percent Inhibition (cumulative irritation inhibition) ([3]; concentration 31 mM) | Percent Inhibition (cumulative irritation inhibition) ([3]; concentration 62 mM) | Percent Inhibition (cumulative irritation inhibition) ([3]; concentration 125 mM) | Percent Inhibition (cumulative irritation inhibition) ([3]; concentration 250 mM) | Percent Inhibition (cumulative irritation inhibition) ([3]; concentration 500 mM)
1 | O=C(O)[C@H](O)[C@@H](O)[C@H](O)[C@H](O)CO [Calcium gluconate] | 40% | 49% | 40% | particularly active as anti-irritants | – | – | – | – | – | – | – | – | – | – | –
2 | [Ca+2].[Cl-].[Cl-] [Calcium chloride] | – | – | – | particularly active as anti-irritants | 65% | 61% | 35% | 35% | effective to inhibit skin irritation | – | – | – | – | – | –
3 | [Ca+2] [calcium(II) (Ca^2+)] | – | – | – | significant and reproducible anti-irritant effects | – | – | – | – | – | effective | – | – | – | – | –
4 | CC(=O)[O-].CC(=O)[O-].[Ca+2] [Calcium acetate] | – | – | – | particularly active as anti-irritants | 60% | 65% | 40% | 30% | effective to inhibit skin irritation | – | – | – | – | – | –
5 | O=[N+]([O-])[O-].O=[N+]([O-])[O-].[Ca+2] [Calcium nitrate] | – | – | – | particularly active as anti-irritants | 90% | 85% | 45% | 44% | effective to inhibit skin irritation | – | 26% | 52% | 83% | 82% | 67%
